Results: patent US11731986B2 (Sanford Burnham Prebys Medical Discovery Institute, priority 2017, dated 2023)

target: T1, human LMPTP-A (Homo sapiens, UniProt P24666); test: Enzyme Assay of Inhibition of LMPTP-A (phosphatase assay, OMFP or pNPP substrate); format: biochemical; details: Bis-Tris pH 6.0, 37° C.
T1 sequence (P24666 1-158): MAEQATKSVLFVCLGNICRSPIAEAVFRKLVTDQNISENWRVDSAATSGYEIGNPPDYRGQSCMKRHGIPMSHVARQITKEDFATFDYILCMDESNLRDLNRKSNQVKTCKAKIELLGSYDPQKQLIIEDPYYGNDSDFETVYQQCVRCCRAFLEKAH
How it was run: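 Buffer 50 mM Bis-Tris pH 6.0, 1 mM DTT, 0.01% Triton X-100, 37 °C; OMFP read continuously (485/525 nm) or pNPP stopped with NaOH, 405 nm. IC50 from concentration vs % activity. Selectivity: 40 μM compound with 0.4 mM OMFP or 5 mM pNPP; reversibility: 50 nM enzyme, 10 μM compound, 5 min, 100× dilution.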

| Structure (SMILES) | IC50 [nM] |
| --- | --- |
| O=C(NCCCN1CCCCC1)c1ccc(-c2cc(NCCCN3CCCCC3)c3cnccc3n2)cn1 [N-(3-(piperidin-1-yl)propyl)-5-(4-((3-(piperidin-1-yl)propyl)amino)-1,6-naphthyridin-2-yl)picolinamide] | ≥ 20000 |
| O=C(c1nc2ccc(-c3cc(NCCCN4CCCCC4)c4cnccc4n3)cc2s1)N1CCNCC1 [Piperazin-1-yl(6-(4-(3-(piperidin-1-yl)propylamino)-1,6-naphthyridin-2-yl)benzo[d]thiazol-2-yl)methanone] | 1000 to 20000 |
| CN1CCC(NC(=O)c2ccc(-c3cc(NCCCN4CCCCC4)c4cncc(Br)c4n3)cc2)CC1 [4-(8-Bromo-4-((3-(piperidin-1-yl)propyl)amino)-1,6-naphthyridin-2-yl)-N-(1-methylpiperidin-4-yl)benzamide] | ≥ 20000 |

Other lines, results leading:

| IC50 [nM] | Structure (SMILES) |
| --- | --- |
| ≤ 1000 | CN1CCC(NC(=O)c2cc3cc(-c4cc(NC5CCN(C)CC5)c5cnccc5n4)ccc3n2C)CC1 [1-Methyl-N-(1-methylpiperidin-4-yl)-5-(4-((1-methylpiperidin-4-yl)amino)-1,6-naphthyridin-2-yl)-1H-indole-2-carboxamide] |
| ≤ 1000 | Cn1c(C(=O)NC2CCOCC2)cc2cc(-c3cc(NCCCN4CCCCC4)c4cnccc4n3)ccc21 [1-methyl-5-(4-((3-(piperidin-1-yl)propyl)amino)-1,6-naphthyridin-2-yl)-N-(tetrahydro-2H-pyran-4-yl)-1H-indole-2-carboxamide] |
| 1000 to 20000 | CCN(CC)C(=O)c1ccc(-c2cc(NCCN3CCN(C)CC3)c3cnccc3n2)cc1 [N,N-diethyl-4-(4-(2-(4-methylpiperazin-1-yl)ethylamino)-1,6-naphthyridin-2-yl)benzamide] |
| 1000 to 20000 | O=C(NCCCN1CCCCC1)c1ccc(-c2cc(NC3CCNCC3)c3cnccc3n2)cc1 [N-(3-(Piperidin-1-yl)propyl)-4-(4-(piperidin-4-ylamino)-1,6-naphthyridin-2-yl)benzamide] |
| ≤ 1000 | CCN1CCC(NC(=O)c2cc3ccc(-c4cc(NCCCN5CCCCC5)c5cnccc5n4)cc3s2)CC1 [N-(1-ethylpiperidin-4-yl)-6-(4-(3-(piperidin-1-yl)propylamino)-1,6-naphthyridin-2-yl)benzo[b]thiophene-2-carboxamide] |
